Patent US20220249352A1, “MICROPARTICLES BASED ON ESTER DERIVATIVES OF HYALURONAN, METHOD OF PRODUCTION, COMPOSITION COMPRISING THEREOF AND USE THEREOF” (CONTIPRO A.S., priority 2019, published 2022)

How the values were obtained:
[1] = Thermogravimetric analysis (TGA), thermal decomposition; format: physicochemical
Protocol: In this disclosure, it is further reported that the amount of active ATRA is conserved after four weeks of storage at 40° C., in the absence of any further toxic antioxidant, which is an advantage to the previously reported art such as US 20190015366 A1 and WO2015092602A1, that require the presence of the toxic benzoyl peroxide, which have been reported as an inductor of photo-carcinogenesis in hairless mice after solar radiation. Similar art was reported in US20100166852A1. In the present embodiments, the microparticles made of HA−ATRA were stored for prolonged times in the presence of air the microparticles are stable, while the obtained powders degraded faster (FIGS. 2 and 4). […] In this disclosure, the thermal decomposition of the HA−ATRA microparticles was compared with the native polysaccharide and pure retinoic acid using thermogravimetric analysis (TGA) according to de Mendonça CMS, de Barros Lima IP, Aragão CFS, Gomes APB in Thermal compatibility between hydroquinone and retinoic acid in pharmaceutical formulations. Journal of Thermal Analysis and calorimetry 2014; 115:2277-85.
In brief, the TGA (Thermogravimetric analyses) was performed on the microparticles on a […]. About 2 mg of powder was accurately weighed samples were loaded into aluminum pans and analyzed. […]

[2] = tested on: HMGCS1 mRNA expression in HaCaT keratinocyte cells; test: Expression of cholesterol synthesis gene HMGCS1 (QRT-PCR); format: cell-based; details: HaCaT keratinocytes, 48 hours
Protocol: (§1) This example illustrates the expressional changes in keratinocyte cholesterol metabolism pathway components (upon treatment with HA−ATRA (prepared as described in examples 5, 9), unbound ATRA and HA (HA+ATRA), hyaluronan (HA), untreated control (CTRL), retinoic isomers (13-cis-RET) and 9 cis (9-cis-RET). The HaCaT keratinocyte cells were individually treated with the compounds described below for 48 hours and sampled in the indicated times. The mRNA expression of HMGCS1, SQLE and DHRS3 was analyzed with quantitative real-time PCR (QRT-PCR) using a StepOnePlus (ThermoFisher, Waltham, Mass., USA). Briefly, 500 ng of total RNA was transcribed to cDNA (High-Capacity cDNA Reverse Transcription Kit, ThermoFisher, Waltham, Mass., USA). Approximately 5 ng of cDNA was used for QRT-PCR reaction in 10 μl volume. The TaqMan assays (all from ThermoFisher, Waltham, Mass., USA) used were: HMGCS1 (Hs00940429_m1), SQLE (Hs01123768_m1), DHRS3 (Hs01044021_m1) and RPL13A (Hs04194366_g1). Duplicate reaction tubes were set up for each sample. All expression values for HMGCS1, SQLE and DHRS3 were related to the amount of the housekeeping gene RPL13A to correct for variations in RNA levels and efficiency in cDNA synthesis. Regarding the analyzed enzyme involved in cholesterol synthesis, only treatment with microparticles of HA−ATRA increased the expression of HMGCS1 and SQLE, all samples containing retinoids increased expression of positive control DHRS3 (FIG. 10). However, microparticles HA−ATRA can upregulate cholesterol synthesis gene HMGCS1 like when the molarity of the retinoic acid bound to HA is the same in both treatments, this is shown in FIG. 11.

[3] = tested on: SQLE mRNA expression in HaCaT keratinocyte cells; test: Expression of cholesterol synthesis gene SQLE (QRT-PCR); format: cell-based; details: HaCaT keratinocytes, 48 hours
Protocol: as §1

Row | Compound | temperature range of decomposition (three stages, TG curve) [1] | expression of HMGCS1 [2] | expression of SQLE [3]
1 | CC(C=CC1=C(C)CCCC1(C)C)=CC=CC(C)=CC(=O)O [ATRA, 3,7-dimethyl-9-(2,6,6-trimethyl-1-cyclohexene-1-yl)-2,4,6,8-nonatetraenoic acid] | 185−609 °C | did not induce | did not induce
2 | CC1=C(/C=C/C(C)=C\C=C\C(C)=C\C(=O)O)C(C)(C)CCC1 [9-cis retinoic, 9-cis retinoic acid] |  | neither unbound 9-cis retinoic nor 13-cis retinoic acid were able to upregulate | neither unbound 9-cis retinoic nor 13-cis retinoic acid were able to upregulate
3 | CC1=C(/C=C/C(C)=C/C=C/C(C)=C\C(=O)O)C(C)(C)CCC1 [13-cis retinoic acid] |  | neither unbound 9-cis retinoic nor 13-cis retinoic acid were able to upregulate | neither unbound 9-cis retinoic nor 13-cis retinoic acid were able to upregulate
